# Calls of active or inactive are those of the source. No cut-off for these calls is given here.
# How the values were obtained:
# SK-OV-3 [1] = test: Inhibition of cell migration in human SK-OV-3 cells assessed as area of migrated cells at 2.5 nM incubated for 24 hrs by crystal violet staining based inverted microscopic analysis (reference value: 30.1 +/- 1.3 mm^3); assay type: functional
# MCF7 [2] = test: Inhibition of cell migration in human MCF7 cells assessed as ratio of migrated cells at 12.5 nM incubated for 24 hrs by crystal violet staining based inverted microscopic analysis (reference value: 100%); assay type: functional; set-up: scale not given: the % may be the effect or the level left
# SK-OV-3 [3] = test: Induction of cell cycle arrest in human SK-OV-3 cells assessed as increase in G2/M phase cells at 2.5 nM incubated for 24 hrs PI staining based flow cytometric analysis (reference value: 24.6 +/- 2.0%); assay type: functional
# Tubulin (Homo sapiens) [4] = target: T1, Tubulin (Homo sapiens) (UniProt P68371+Q9H4B7+P0DPH7+P68366+Q13509+Q71U36+P04350+Q3ZCM7+P07437+P68363+Q9BQE3+Q6PEY2+Q13885+Q9BVA1+Q9BUF5); test: Inhibition of tubulin polymerization (unknown origin) assessed as reduction in optical density at 340 nm at 20 uM relative to control; assay type: protein-complex assay
# [5] = Toxicity in female BALB/c nude mouse xenografted with human SK-OV-3 cells assessed as pathological changes in lung at 5 to 10 mg/kg, […] via tail vein once every 2 to 3 days by H and E staining based analysis; assay type: organism-based; conditions: in vivo, dose lower 5 mg/kg, time lower 2 day, dose upper 10 mg/kg, time upper 3 day
# SK-OV-3 [6] = test: Inhibition of cell migration in human SK-OV-3 cells assessed as wound closure ratio at 6.25 nM incubated for 24 hrs by wound healing assay (reference value: 100%); assay type: functional; set-up: scale not given: the % may be the effect or the level left
# SK-OV-3 [7] = test: Antitumor activity against human SK-OV-3 cells assessed as reduction in cell viability incubated for 72 hrs by CCK8 assay; assay type: functional, cell-based; conditions: SK-OV-3, 72 h
# SK-OV-3 [8] = test: Induction of apoptosis in human SK-OV-3 cells assessed as upregulation of cleaved-caspase-3 expression incubated for 24 hrs by Western blotting analysis; assay type: functional, cell-based; conditions: dose 25-100 nM
# MCF7 [9] = test: Inhibition of cell migration in human MCF7 cells assessed as area of migrated cells at 25 nM incubated for 24 hrs by crystal violet staining based inverted microscopic analysis (reference value: 18.5 +/- 0.3 mm^3); assay type: functional
# MCF7 [10] = test: Inhibition of cell migration in human MCF7 cells assessed as wound closure ratio at 5 nM incubated for 24 hrs by wound healing assay (reference value: 100%); assay type: functional; set-up: scale not given: the % may be the effect or the level left
# Tubulin (Homo sapiens) [11] = target: T1, Tubulin (Homo sapiens); test: Inhibition of tubulin polymerization in human SK-OV-3 cells assessed as destruction of microtubule network at 20 nM incubated for 18 hrs by Alexa Fluor 488 staining based confocal immunofluorescent microscopic analysis; assay type: cell-based
# MCF7 [12] = test: Induction of apoptosis in human MCF7 cells assessed as downregulation of Bax expression at 25 to 50 nM incubated for 24 hrs by Western blotting analysis; assay type: functional, cell-based; conditions: dose 25-50 nM
# SK-OV-3 [13] = test: Induction of cell cycle arrest in human SK-OV-3 cells assessed as downregulation of Cdc-25c expression incubated for 24 hrs by Western blotting analysis; assay type: functional, cell-based; conditions: dose 25-100 nM
# SK-OV-3 [14] = test: Induction of apoptosis in human SK-OV-3 cells assessed as upregulation of cleaved-PARP expression at 25 to 50 nM incubated for 24 hrs by Western blotting analysis; assay type: functional, cell-based; conditions: dose 25-50 nM
# SK-OV-3 [15] = test: Antitumor activity against human SK-OV-3 cells xenografted xenografted in female BALB/c nude mouse assessed as downregulation of CD-31 expression level in tumor at 10 mg/kg, […] via tail vein once every 2 to 3 days by immunohistochemistry analysis; assay type: functional, organism-based; conditions: time 2-3 day
# MCF7 [16] = test: Inhibition of cell migration in human MCF7 cells assessed as wound closure ratio at 20 nM incubated for 24 hrs by wound healing assay (reference value: 100%); assay type: functional; set-up: scale not given: the % may be the effect or the level left
# SK-OV-3 [17] = test: Inhibition of colony formation in human SK-OV-3 cells incubated for 12 days by crystal violet staining based assay; assay type: functional, cell-based; conditions: dose 1.25-20 nM, time 12.0 day
# SK-OV-3 [18] = test: Induction of apoptosis in human SK-OV-3 cells assessed as increase in apoptotic cells at 2.5 to 40 nM by IncuCyte live-cell imaging analysis; assay type: functional, cell-based; conditions: dose 2.5-40 nM, time lower 24.0 hrs, time upper […]
# SK-OV-3 [19] = test: Inhibition of cell migration in human SK-OV-3 cells assessed as area of migrated cells at 20 nM incubated for 24 hrs by crystal violet staining based inverted microscopic analysis (reference value: 30.1 +/- 1.3 mm^3); assay type: functional
# SK-OV-3 [20] = test: Antitumor activity against human SK-OV-3 cells xenografted xenografted in female BALB/c nude mouse assessed as downregulation of Bcl-2 expression level in tumor at 5 to 10 mg/kg, […] via tail vein once every 2 to 3 days by immunohistochemistry analysis; assay type: functional, organism-based; conditions: dose 5-10 mg/kg, time 2-3 day
# SK-OV-3 [21] = test: Inhibition of cell migration in human SK-OV-3 cells assessed as wound closure ratio at 25 nM incubated for 24 hrs by wound healing assay (reference value: 100%); assay type: functional; set-up: scale not given: the % may be the effect or the level left
# [22] = Toxicity in female BALB/c nude mouse xenografted with human SK-OV-3 cells assessed as pathological changes in heart at 5 to 10 mg/kg, […] via tail vein once every 2 to 3 days by H and E staining based analysis; assay type: organism-based; conditions: in vivo, dose lower 5 mg/kg, time lower 2 day, dose upper 10 mg/kg, time upper 3 day
# [23] = Toxicity in female BALB/c nude mouse xenografted with human SK-OV-3 cells assessed as drug tolerance by measuring body weight loss at 30 mg/kg, administered via tail vein for 5 days and measured daily; assay type: organism-based; conditions: in vivo, iv, 120 h, time 5 day
# MCF7 [24] = test: Inhibition of cell migration in human MCF7 cells assessed as ratio of migrated cells at 3.125 nM incubated for 24 hrs by crystal violet staining based inverted microscopic analysis (reference value: 100%); assay type: functional; set-up: scale not given: the % may be the effect or the level left
# MCF7 [25] = test: Induction of apoptosis in human MCF7 cells assessed as upregulation of Bcl-2 expression at 100 nM incubated for 24 hrs by Western blotting analysis; assay type: functional, cell-based
# [26] = Toxicity in female BALB/c nude mouse xenografted with human SK-OV-3 cells assessed as effect on physiological status at 15 mg/kg, administered via tail vein for 5 days and measured daily; assay type: organism-based; conditions: in vivo, iv, 120 h, time 5 day
# MCF7 [27] = test: Inhibition of cell migration in human MCF7 cells assessed as area of migrated cells at 50 nM incubated for 24 hrs by crystal violet staining based inverted microscopic analysis (reference value: 18.5 +/- 0.3 mm^3); assay type: functional
# MCF7 [28] = test: Inhibition of cell migration in human MCF7 cells assessed as wound closure at 1.25 nM incubated for 24 hrs by wound healing assay (reference value: 44.5 +/- 8.8%); assay type: functional; set-up: scale not given: the % may be the effect or the level left
# SK-OV-3 [29] = test: Inhibition of cell migration in human SK-OV-3 cells assessed as reduction in wound closure at 50 nM incubated for 24 hrs by wound healing assay (reference value: 21.8 +/- 7.6%); assay type: functional; conditions: SK-OV-3, 24 h, values are per cent of control
# MCF7 [30] = test: Inhibition of cell migration in human MCF7 cells assessed as wound closure at 20 nM incubated for 24 hrs by wound healing assay (reference value: 44.5 +/- 8.8%); assay type: functional; set-up: scale not given: the % may be the effect or the level left
# SK-OV-3 [31] = test: Induction of apoptosis in human SK-OV-3 cells assessed as upregulation of Bcl-2 expression at 100 nM incubated for 24 hrs by Western blotting analysis; assay type: functional, cell-based
structure (smiles),measurement,setting,value
CNc1nc(N2CCCc3cc(OC)ccc32)c2cc(F)ccc2n1,Activity,SK-OV-3 [1],18.9 mm3
same,Activity,MCF7 [2],60.4%
same,Activity,SK-OV-3 [3],25.3%
same,inhibition,Tubulin (Homo sapiens) [4],100%
same,Activity,[5],Non-toxic
same,Activity,SK-OV-3 [6],84.3%
same,IC50,SK-OV-3 [7],0.8 nM
same,Activity,SK-OV-3 [8],Dose-dependent-effect
same,Activity,MCF7 [9],2.4 mm3
same,Activity,MCF7 [10],97.3%
same,inhibition,Tubulin (Homo sapiens) [11],Active
same,Activity,MCF7 [12],inactive
same,Activity,SK-OV-3 [13],Dose-dependent-effect
same,Activity,SK-OV-3 [14],Active
same,Activity,SK-OV-3 [15],Active
same,Activity,MCF7 [16],72.4%
same,inhibition,SK-OV-3 [17],Dose-dependent-effect
same,Activity,SK-OV-3 [18],Time-dependent-effect
same,Activity,SK-OV-3 [19],3.6 mm3
same,Activity,SK-OV-3 [20],Active
same,Activity,SK-OV-3 [21],51.4%
same,Activity,[22],Non-toxic
same,Activity,[23],Toxic
same,Activity,MCF7 [24],94.5%
same,Activity,MCF7 [25],inactive
same,Activity,[26],Toxic
same,Activity,MCF7 [27],2.2 mm3
same,Activity,MCF7 [28],47%
same,"response, % of control at 0.05 µM",SK-OV-3 [29],4.9%
same,Activity,MCF7 [30],32.2%
same,Activity,SK-OV-3 [31],inactive

# — ChEMBL document CHEMBL6074686 (Eur J Med Chem, 2025)
